# In US20260130917A1, “ANTIVIRAL COMPOSITION FOR CORONAVIRUS OR INFLUENZA VIRUS, USING NATURAL PRODUCTS, AND USE THEREOF” (priority 2022, published 2026):
# What was measured:
# in vitro [1] = conditions: monkey
# [2] = system: SARS-CoV-2 (βCoV/KOR/KCDC03/2020); experiment: microbe, parasite or virus in culture; conditions: Severe acute respiratory syndrome coronavirus 2, Calu-3
# [3] = system: SARS-CoV-2 (βCoV/KOR/KCDC03/2020); experiment: in vitro; conditions: human
# in vitro [4] = conditions: human
# [5] = system: SARS-CoV-2 (βCoV/KOR/KCDC03/2020); experiment: microbe, parasite or virus in culture; conditions: Severe acute respiratory syndrome coronavirus 2, Vero
# [6] = system: SARS-CoV-2 (βCoV/KOR/KCDC03/2020); experiment: in vitro; conditions: monkey
# [7] = system: SARS-CoV-2 virus (B CoV/Korea/KCDC03/2020, NCCP43326); experiment: Time-of-addition assay in Vero cells; format: cell-based; conditions: 50 μM, MOI 3
# [8] = system: SARS-CoV-2 βCoV/Korea/KCDC03/2020, NCCP43326; experiment: Efficacy in SARS-CoV-2 infected hACE2 transgenic mice (lung virus titer and viral RNA); format: in vivo; conditions: orally at 50 mg/kg, once a day three times, lungs on third day
# [9] = system: influenza B B/Brisbane/60/2008; experiment: Antiviral activity against influenza virus in MDCK cells; format: cell-based, influenza B virus; conditions: concentration of 6.3 μM
# [10] = system: influenza A H3N2 A/Hong Kong/4801/2014; experiment: as above; format: cell-based, influenza A virus; conditions: concentration of 6.3 μM
# [11] = system: SARS-CoV-2 spike pseudovirus particles; experiment: organism not typed; format: cell-based
# [12] = system: influenza A H1N1 A/California/07/2009; experiment: Antiviral activity against influenza virus in MDCK cells; format: cell-based, influenza A virus; conditions: concentration of 6.3 μM
SMILES,CC50 (in vitro [1]),IC50 [5],selectivity ratio [6],also measured
"CCOC(=O)c1c(C(C)(C)C)oc2ccc(OC(=O)c3ccc(OC)cc3)cc12 [MolPort-000-424-809, Ethyl 2-tert-butyl-5-(4-methoxybenzoyloxy)-1-benzofuran-3-carboxylate]",> 100 µM,31.2 µM,,IC50 [2]: 50.7 µM; selectivity ratio [3]: 1.97; CC50 (in vitro [4]): > 100 µM
"c1ccc(Oc2cccc(OCCCN3CCCCC3c3cccnc3)c2)cc1 (stereo not shown) [MolPort-000-829-850, 3-{1-[3-(3-phenoxyphenoxy)propyl]piperidin-2-yl}pyridine and oxalic acid]",32.4 µM,15.6 µM,2.08,
"CCCCCCCC/C=C\CCCCCCCC(=O)O [MolPort-001-788-274, (9Z)-octadec-9-enoic acid]",> 100 µM,67.9 µM,,
"CCCCC/C=C\C/C=C\CCCCCCCC(=O)O [MolPort-001-788-459, (9Z,12Z)-octadeca-9,12-dienoic acid]",> 100 µM,37.6 µM,,
"CC(C)(C)c1cc(CCCOC(=O)CNc2ccccc2)cc(C(C)(C)C)c1O [MolPort-002-151-168, 3-(3,5-di-tert-butyl-4-hydroxyphenyl)propyl 2-(phenylamino)acetate]",> 100 µM,23.5 µM,,IC50 [2]: 60.7 µM; selectivity ratio [3]: 1.65; CC50 (in vitro [4]): > 100 µM
"CC(C)(C)c1cc(CCCOC(=O)CNC2CCCCC2)cc(C(C)(C)C)c1O [MolPort-002-152-403, 3-(3,5-di-tert-butyl-4-hydroxyphenyl)propyl 2-(cyclohexylamino)acetate]",56.2 µM,32.5 µM,1.73,
"CCCCCCCCC1OCC(OC(=O)c2ccc(OC)cc2)CO1 (stereo not shown) [MolPort-002-515-990, 2-octyl-1,3-dioxan-5-yl 4-methoxybenzoate]",> 100 µM,24.6 µM,,IC50 [2]: 52.2 µM; selectivity ratio [3]: 1.92; CC50 (in vitro [4]): > 100 µM
"O=C(OC[C@@H]1CCCN2CCCC[C@H]12)c1ccc(CSCc2ccccc2)o1 [MolPort-002-520-573, [(1R,9aR)-octahydro-1H-quinolizin-1-yl]methyl 5-[(benzylsulfanyl)methyl]furan-2-carboxylate]",58 µM,28.5 µM,2.04,
"CCCc1cc2c3c(c(=O)oc2cc1OC(=O)CNC(=O)OCc1ccccc1)CCC3 [MolPort-002-526-563, 4-oxo-8-propyl-1H,2H,3H,4H-cyclopenta[c]chromen-7-yl 2-{[(benzyloxy)carbonyl]amino}acetate]",33.4 µM,28.7 µM,1.16,
"O=C(NCCc1ccccc1)c1cc2c([nH]c3ccccc32)c(CCc2ccccc2)n1 [MolPort-002-526-760, N,1-bis(2-phenylethyl)-9H-pyrido[3,4-b]indole-3-carboxamide]",42.2 µM,25.8 µM,1.63,
"CCCCCCCc1ccc(C(=O)Oc2ccc(C(=O)O)cc2)cc1 [MolPort-003-709-991, 4-(4-heptylbenzoyloxy)benzoic acid]",> 100 µM,43.3 µM,,
"CCCCCCCOC(=O)c1ccc(OC(=O)c2cccnc2)cc1 [MolPort-003-711-757, 4-[(heptyloxy)carbonyl]phenyl pyridine-3-carboxylate]",49 µM,24.3 µM,2.02,
"CCCCCCCc1ccc(C(=O)Oc2ccc(SC)cc2)cc1 [MolPort-003-713-147, 4-(methylsulfanyl)phenyl 4-heptylbenzoate]",> 100 µM,94.4 µM,,
"CCCCCCCOC(=O)c1ccc(OC(=O)c2cncc(Br)c2)cc1 [MolPort-003-713-431, 4-[(heptyloxy)carbonyl]phenyl 5-bromopyridine-3-carboxylate]",> 100 µM,57.5 µM,,
"CC/C=C\C/C=C\C/C=C\C/C=C\C/C=C\C/C=C\CCC(=O)O [MolPort-003-932-890, (4Z,7Z,10Z,13Z,16Z,19Z)-docosa-4,7,10,13,16,19-hexaenoic acid]",62.4 µM,58.6 µM,1.06,
"CC/C=C\C/C=C\C/C=C\C/C=C\C/C=C\CCCC(=O)O [MolPort-003-933-180, (5Z,8Z,11Z,14Z,17Z)-icosa-5,8,11,14,17-pentaenoic acid]",70.5 µM,41.8 µM,1.69,
"CC/C=C\C/C=C\C/C=C\CCCCCCCC(=O)O [MolPort-003-937-817, (9Z,12Z,15Z)-octadeca-9,12,15-trienoic acid]",> 100 µM,58.6 µM,1.71,
"CCCCCC[C@@H](O)C/C=C\CCCCCCCC(=O)O [MolPort-003-939-239, (9Z,12R)-12-hydroxyoctadec-9-enoic acid]",> 100 µM,60.5 µM,,
"CCCCCCCCCCC#CC#CCCCCCCCCC(=O)O [MolPort-003-939-688, tricosa-10,12-diynoic acid]",> 100 µM,29.9 µM,,IC50 [2]: 83.8 µM; selectivity ratio [3]: 1.19; CC50 (in vitro [4]): > 100 µM
"O=C(C[C@@H]1CCNC[C@@H]1Cc1cc(COc2ccccc2)on1)NCc1ccc(F)cc1 [MolPort-005-947-745, N-[(4-fluorophenyl)methyl]-2-[(3R,4S)-3-{[5-(phenoxymethyl)-1,2-oxazol-3-yl]methyl}piperidin-4-yl]acetamide]",34.7 µM,24.3 µM,1.43,
"O=C(CCCNC(=O)c1cc2ccccc2o1)NCCc1c[nH]c2ccccc12 [MolPort-005-974-761, 4-[(1-benzofuran-2-yl)formamido]-N-[2-(1H-indol-3-yl)ethyl]butanamide]",> 100 µM,71.3 µM,,
"CCCCCOc1cccc(/C=C/C23N=C(O)CCN2c2ccccc2C3(C)C)c1 (stereo not shown) [MolPort-005-980-235, 10,10-dimethyl-10a-[(1E)-2-[3-(pentyloxy)phenyl]ethenyl]-3H,4H,10H,10aH-pyrimido[1,2-a]indol-2-ol]",> 100 µM,8.49 µM,,"IC50 [2]: 15.6 µM; selectivity ratio [3]: 6.42; virus infection pattern ([7]; treated 1 hour after virus infection): virus infection could not be prevented; virus infection pattern ([7]; treated 1 hour before virus infection or simultaneously with the virus): virus infection did not occur; viral RNA in the lungs [8]: decreased at a statistically significant level; viral titer (TCID50) in the lungs [8]: tended to decrease; antiviral activity [9]: about 50%; antiviral activity [10]: about 90%; IC50 ([11]; 48 h): 27.5 µM; inhibition at 50 µM ([11]; Severe acute respiratory syndrome coronavirus 2, read-out: inhibition of intracellular entry of the SARS-CoV-2 virus): ~90%; antiviral activity [12]: about 90%"
"CC/C=C/C/C=C/C/C=C/C/C=C/C/C=C/C/C=C\CCC(=O)O [MolPort-008-266-638, (4Z,7E,10E,13E,16E,19E)-docosa-4,7,10,13,16,19-hexaenoic acid]",36.2 µM,28.2 µM,1.29,
"CC(C)CCC(CCNCc1ccc(OC(C)C)cc1)C1CCOC(C)(C)C1 (stereo not shown) [MolPort-009-758-577, [3-(2,2-dimethyloxan-4-yl)-6-methylheptyl]({[4-(propan-2-yloxy)phenyl]methyl})amine and oxalic acid]",14.5 µM,7.94 µM,1.83,
"O=C(NC[C@@H]1CCCN2CCCC[C@H]12)c1cccc(-c2cc3ccccc3oc2=O)c1 [MolPort-027-564-039, N-{[(1S,9aR)-octahydro-1H-quinolizin-1-yl]methyl}-3-(2-oxo-2H-chromen-3-yl)benzamide]",> 100 µM,23.3 µM,,
"O=C(Cn1ccc2ccc(OCc3ccccc3)cc21)NC[C@@H]1CCCN2CCCC[C@H]12 [MolPort-027-564-475, N-{[(1S,9aR)-octahydro-1H-quinolizin-1-yl]methyl}-2-[6-(benzyloxy)-1H-indol-1-yl]acetamide]",34.3 µM,18.5 µM,1.85,
